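Interpolation was linear, between the two tested concentrations surrounding the appropriate level; five concentrations were tested over 48 hours in 96-well plates. GI50 = concentration required for 50% inhibition of growth.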 Active and inactive are the calls of the source. Cut-off read from the data, not from the text of the source: active = GI50 up to about 1.1 µM and inactive = higher.
What was measured:
Experiment in all cases: inhibition of tumour cell growth, NCI panel, 48 h
786-0 = system: 786-0
A498 = system: A498
A549 = system: A549
ACHN = system: ACHN
BT-549 = system: BT-549
CAKI-1 = system: CAKI-1
CCRF-CEM = system: CCRF-CEM
COLO 205 = system: COLO 205
DU-145 = system: DU-145
EKVX = system: EKVX
HCC 2998 = system: HCC 2998
HCT-116 = system: HCT-116
HCT-15 = system: HCT-15
HL-60 = system: HL-60
HOP-62 = system: HOP-62
HOP-92 = system: HOP-92
HT-29 = system: HT-29
Hs-578T = system: Hs-578T
IGROV-1 = system: IGROV-1
K562 = system: K562
KM12 = system: KM12
LOX IMVI = system: LOX IMVI
M14 = system: M14
MCF7 = system: MCF7
MDA-MB-231 = system: MDA-MB-231
MDA-MB-435 = system: MDA-MB-435
MDA-N = system: MDA-N
MOLT-4 = system: MOLT-4
Malme-3M = system: Malme-3M
NCI-H226 = system: NCI-H226
NCI-H23 = system: NCI-H23
NCI-H460 = system: NCI-H460
NCI-H522 = system: NCI-H522
NCI/ADR-RES = system: NCI/ADR-RES
OVCAR-3 = system: OVCAR-3
OVCAR-4 = system: OVCAR-4
OVCAR-5 = system: OVCAR-5
OVCAR-8 = system: OVCAR-8
PC-3 = system: PC-3
RPMI-8226 = system: RPMI-8226
RXF 393 = system: RXF 393
SF-268 = system: SF-268
SF-295 = system: SF-295
SF-539 = system: SF-539
SK-MEL-28 = system: SK-MEL-28
SK-MEL-2 = system: SK-MEL-2
SK-MEL-5 = system: SK-MEL-5
SK-OV-3 = system: SK-OV-3
SN12C = system: SN12C
SNB-19 = system: SNB-19
SNB-75 = system: SNB-75
SR = system: SR
SW-620 = system: SW-620
T47D = system: T47D
TK-10 = system: TK-10
U-251 = system: U-251
UACC-257 = system: UACC-257
UACC-62 = system: UACC-62
UO-31 = system: UO-31

Structure (SMILES): CSc1c(C#N)c(N)nc2c(/N=N\c3ccc(Br)cc3)c(N)nn12
- GI50 (786-0): 6.17 µM (inactive)
- GI50 (A498): 24 µM (inactive)
- GI50 (A549): 8.99 µM (inactive)
- GI50 (ACHN): 7 µM (inactive)
- GI50 (BT-549): 12.4 µM (inactive)
- GI50 (CAKI-1): 12.6 µM (inactive)
- GI50 (CCRF-CEM): 3.12 µM (inactive)
- GI50 (COLO 205): 10 µM (inactive)
- GI50 (DU-145): 6.14 µM (inactive)
- GI50 (EKVX): 7.78 µM (inactive)
- GI50 (HCC 2998): 8.87 µM (inactive)
- GI50 (HCT-116): 6.34 µM (inactive)
- GI50 (HCT-15): 3.5 µM
- GI50 (HL-60): 2.82 µM (inactive)
- GI50 (HOP-62): 11.4 µM (inactive)
- GI50 (HOP-92): 6.81 µM (inactive)
- GI50 (HT-29): 9.53 µM (inactive)
- GI50 (Hs-578T): 2.37 µM (inactive)
- GI50 (IGROV-1): 3.01 µM (inactive)
- GI50 (K562): 2.75 µM (inactive)
- GI50 (KM12): 9.02 µM (inactive)
- GI50 (LOX IMVI): 1.96 µM (inactive)
- GI50 (M14): 8.83 µM (inactive)
- GI50 (MCF7): 3.16 µM (inactive)
- GI50 (MDA-MB-231): 6.97 µM (inactive)
- GI50 (MDA-MB-435): 9.66 µM (inactive)
- GI50 (MDA-N): 6.71 µM (inactive)
- GI50 (MOLT-4): 3.63 µM (inactive)
- GI50 (Malme-3M): 8.69 µM (inactive)
- GI50 (NCI-H226): 21.5 µM (inactive)
- GI50 (NCI-H23): 6.25 µM (inactive)
- GI50 (NCI-H460): 12.8 µM (inactive)
- GI50 (NCI-H522): 6.41 µM (inactive)
- GI50 (NCI/ADR-RES): 17.7 µM (inactive)
- GI50 (OVCAR-3): 2.95 µM (inactive)
- GI50 (OVCAR-4): 7.21 µM (inactive)
- GI50 (OVCAR-5): 16.6 µM (inactive)
- GI50 (OVCAR-8): 5.85 µM (inactive)
- GI50 (PC-3): 8.3 µM (inactive)
- GI50 (RPMI-8226): 9.84 µM (inactive)
- GI50 (RXF 393): 7.57 µM (inactive)
- GI50 (SF-268): 5.82 µM (inactive)
- GI50 (SF-295): 8.63 µM (inactive)
- GI50 (SF-539): 9.18 µM (inactive)
- GI50 (SK-MEL-28): 10.7 µM (inactive)
- GI50 (SK-MEL-2): 4.48 µM (inactive)
- GI50 (SK-MEL-5): 18.1 µM (inactive)
- GI50 (SK-OV-3): 21.2 µM (inactive)
- GI50 (SN12C): 6.65 µM (inactive)
- GI50 (SNB-19): 28.4 µM (inactive)
- GI50 (SNB-75): 10.6 µM (inactive)
- GI50 (SR): 2.55 µM (inactive)
- GI50 (SW-620): 5.64 µM (inactive)
- GI50 (T47D): 2 µM (inactive)
- GI50 (TK-10): 15 µM (inactive)
- GI50 (U-251): 6.58 µM (inactive)
- GI50 (UACC-257): 8.05 µM (inactive)
- GI50 (UACC-62): 7.26 µM (inactive)
- GI50 (UO-31): 14.8 µM (inactive)

Structure (SMILES): C/C(=C\c1csc(C)n1)[C@@H]1C[C@@H]2O[C@@H]2CCC[C@H](C)[C@H](O)[C@@H](C)C(=O)C(C)(C)[C@@H](O)CC(=O)O1.C/C(=C\c1csc(C)n1)[C@@H]1C[C@@H]2O[C@]2(C)CCC[C@H](C)[C@H](O)[C@@H](C)C(=O)C(C)(C)[C@@H](O)CC(=O)O1
- GI50 (786-0): 0.005 µM (active)
- GI50 (A498): 0.0105 µM (active)
- GI50 (A549): 0.0039 µM (active)
- GI50 (ACHN): 0.0179 µM (active)
- GI50 (BT-549): 0.0569 µM (active)
- GI50 (CAKI-1): 0.0101 µM (active)
- GI50 (CCRF-CEM): 0.0478 µM (active)
- GI50 (COLO 205): 0.00299 µM (active)
- GI50 (DU-145): 0.00604 µM (active)
- GI50 (EKVX): 0.0252 µM (active)
- GI50 (HCC 2998): 0.00403 µM (active)
- GI50 (HCT-116): 0.00173 µM (active)
- GI50 (HCT-15): 0.00218 µM
- GI50 (HL-60): 0.00475 µM (active)
- GI50 (HOP-62): 0.0258 µM (active)
- GI50 (HOP-92): 0.0698 µM (active)
- GI50 (HT-29): 0.00107 µM (active)
- GI50 (Hs-578T): 0.00378 µM (active)
- GI50 (IGROV-1): 0.00241 µM (active)
- GI50 (K562): 0.00787 µM (active)
- GI50 (KM12): 0.00265 µM (active)
- GI50 (LOX IMVI): 0.00272 µM (active)
- GI50 (M14): 0.00266 µM (active)
- GI50 (MCF7): 0.00293 µM (active)
- GI50 (MDA-MB-231): 0.00893 µM (active)
- GI50 (MDA-MB-435): 0.000973 µM (active)
- GI50 (MDA-N): 0.000326 µM (active)
- GI50 (MOLT-4): 0.00738 µM (active)
- GI50 (Malme-3M): 0.129 µM (active)
- GI50 (NCI-H226): 0.0455 µM (active)
- GI50 (NCI-H23): 0.00664 µM (active)
- GI50 (NCI-H460): 0.00129 µM (active)
- GI50 (NCI-H522): 0.00076 µM (active)
- GI50 (NCI/ADR-RES): 0.0191 µM (active)
- GI50 (OVCAR-3): 0.00333 µM (active)
- GI50 (OVCAR-4): 1 µM (active)
- GI50 (OVCAR-5): 0.108 µM (active)
- GI50 (OVCAR-8): 0.0048 µM (active)
- GI50 (PC-3): 0.00469 µM (active)
- GI50 (RPMI-8226): 0.00995 µM (active)
- GI50 (RXF 393): 0.00266 µM (active)
- GI50 (SF-268): 0.0122 µM (active)
- GI50 (SF-295): 0.00567 µM (active)
- GI50 (SF-539): 0.00511 µM (active)
- GI50 (SK-MEL-28): 0.00475 µM (active)
- GI50 (SK-MEL-2): 0.0246 µM (active)
- GI50 (SK-MEL-5): 0.00408 µM (active)
- GI50 (SK-OV-3): 0.00971 µM (active)
- GI50 (SN12C): 0.00562 µM (active)
- GI50 (SNB-19): 0.0191 µM (active)
- GI50 (SNB-75): 0.00384 µM (active)
- GI50 (SR): 0.00397 µM (active)
- GI50 (SW-620): 0.00255 µM (active)
- GI50 (T47D): 0.0366 µM (active)
- GI50 (TK-10): 0.0439 µM (active)
- GI50 (U-251): 0.0055 µM (active)
- GI50 (UACC-257): 0.145 µM (active)
- GI50 (UACC-62): 0.00767 µM (active)
- GI50 (UO-31): 0.0297 µM (active)

Structure (SMILES): CN(C)CCN1Nc2c3ccccc3nc3c(C(=O)NCCCN(C)CCCNC(=O)c4ccc5c6c(c7ccccc7nc46)NN5CCN(C)C)ccc1c23
- GI50 (786-0): < 0.01 µM (active)
- GI50 (A498): 0.0659 µM (active)
- GI50 (A549): < 0.01 µM (active)
- GI50 (ACHN): < 0.01 µM (active)
- GI50 (BT-549): 0.178 µM (active)
- GI50 (CAKI-1): 0.199 µM (active)
- GI50 (CCRF-CEM): 0.0274 µM (active)
- GI50 (COLO 205): 0.0143 µM (active)
- GI50 (DU-145): 0.0217 µM (active)
- GI50 (EKVX): 0.0504 µM (active)
- GI50 (HCC 2998): < 0.01 µM (active)
- GI50 (HCT-116): < 0.01 µM (active)
- GI50 (HCT-15): 0.178 µM
- GI50 (HL-60): 0.012 µM (active)
- GI50 (HOP-62): 0.0104 µM (active)
- GI50 (HOP-92): 0.305 µM (active)
- GI50 (HT-29): < 0.01 µM (active)
- GI50 (Hs-578T): 0.0352 µM (active)
- GI50 (IGROV-1): < 0.01 µM (active)
- GI50 (K562): < 0.01 µM (active)
- GI50 (KM12): < 0.01 µM (active)
- GI50 (LOX IMVI): < 0.01 µM (active)
- GI50 (M14): 0.0353 µM (active)
- GI50 (MCF7): < 0.01 µM (active)
- GI50 (MDA-MB-231): 0.0581 µM (active)
- GI50 (MDA-MB-435): < 0.01 µM (active)
- GI50 (MDA-N): < 0.01 µM (active)
- GI50 (MOLT-4): < 0.01 µM (active)
- GI50 (Malme-3M): < 0.01 µM (active)
- GI50 (NCI-H226): 0.0187 µM (active)
- GI50 (NCI-H23): 0.0202 µM (active)
- GI50 (NCI-H460): < 0.01 µM (active)
- GI50 (NCI-H522): < 0.01 µM (active)
- GI50 (NCI/ADR-RES): 1.36 µM (inactive)
- GI50 (OVCAR-3): 0.0333 µM (active)
- GI50 (OVCAR-4): 0.0266 µM (active)
- GI50 (OVCAR-5): 0.0322 µM (active)
- GI50 (OVCAR-8): < 0.01 µM (active)
- GI50 (PC-3): < 0.01 µM (active)
- GI50 (RPMI-8226): < 0.01 µM (active)
- GI50 (RXF 393): 0.15 µM (active)
- GI50 (SF-268): 0.0112 µM (active)
- GI50 (SF-295): < 0.01 µM (active)
- GI50 (SF-539): 0.257 µM (active)
- GI50 (SK-MEL-28): 0.0498 µM (active)
- GI50 (SK-MEL-2): 0.0109 µM (active)
- GI50 (SK-MEL-5): 0.0147 µM (active)
- GI50 (SK-OV-3): < 0.01 µM (active)
- GI50 (SN12C): < 0.01 µM (active)
- GI50 (SNB-19): < 0.01 µM (active)
- GI50 (SNB-75): < 0.01 µM (active)
- GI50 (SR): < 0.01 µM (active)
- GI50 (SW-620): < 0.01 µM (active)
- GI50 (T47D): 0.153 µM (active)
- GI50 (TK-10): 0.132 µM (active)
- GI50 (U-251): < 0.01 µM (active)
- GI50 (UACC-257): 0.0224 µM (active)
- GI50 (UACC-62): 0.0173 µM (active)
- GI50 (UO-31): 0.0692 µM (active)
